In patent publication US4731363A, “Thromboxane synthase inhibitors as insulin lowering agents and antiobesity agents” (priority 1986, dated 1988):
Values joined by “and” are separate entries in the source; they are usually repeats but may differ in a detail not shown here. Equal entries are not always repeated. Structures can show the parent of a compound that is named as a salt.

Target: T1, thromboxane synthase (Guinea Pig Lung Microsomes) (Cavia porcellus, UniProt H0UT36)
T1 construct: The lungs were removed, freed of trachea and the majority of blood removed by rinsing the lungs with buffer; from tissue; host or cells: lungs of male guinea pigs (microsomes, 110,000 g pellet)
Test: biochemical
Details: IC50, enzyme source G = Guinea Pig Lung Microsomes
Protocol: In said assay procedure, microsomes from guinea pig lung or human platelets are added to an endoperoxide intermediate in prostaglandin biosynthesis and the inhibitor in phosphate buffer solution followed by incubation, extraction and determination of the extent of thromboxane synthase inhibition by TLC with radiochromatographic profile analysis. […]
Isolation of Guinea Pig Lung Microsomes
Four male guinea pigs (.congruent.500 g each) were sacrificed by spinal dislocation. The lungs were removed, freed of trachea and the majority of blood removed by rinsing the lungs with buffer (0.1M phosphate pH 7.5) via the pulmonary artery. The lung tissue (18.3 g total wet wt.), was then minced, suspended in three volumes of buffer and homogenized using, initially, a Brinkmann polytron homogenizer and, finally, a glass-teflon tissue grinder. The homogenate was centrifuged at 12,000 g for 1 hr. and the resultant supernatant recentrifuged at 110,000 g for 1 hr. The 110,000 g pellet was taken up in 10 ml of buffer, divided into 5×2 ml aliquots and stored at -70° until use.
(§1) Low specific activity PGH2 (3.3 μCi/μmole) was obtained from Dr. W. E. M. Lands of the University of Michigan. PGH2 of higher specific activity (16.0 μCi/μmole) was purchased from Ran Biochemicals, Tel-Aviv, Israel.
(§2) The inhibitors tested were prepared as solutions (1-10 mg/ml) in 95% ethanol.
(§3) Assay for Thromboxane Synthase
(§4) To a 12×75 mm tube containing [1-^14 C] PGH2 (2 μg, 0.01 μCi or 0.05 μCi) and inhibitor (1 mM final assay concentration, in 10 μl of ethanol) in 225 μl of phosphate buffer (0.1M, pH 7.5), was added to an aliquot of guinea pig lung microsomes (25 μl, containing 400 μg protein) or an aliquot of human platelet microsomes (25 μl, containing .congruent.[…] protein). The solution was incubated in a 22° water bath for 2 min.; ether (1 ml) and citric acid (25 μMoles) were added, and the tube plunged into an acetone-dry ice bath. The ether extract was transferred to a 1.0 ml Reacti-vial, and the volume reduced under nitrogen to .congruent.50 μl.
(§5) The extract was applied to an I.T.L.C., type SG, glass fiber sheet (Gelman Instrument Co., Ann Arbor, Mich.) and developed in isooctane; methyl ethyl ketone: acetic acid (100:19:1 or 100:9:1) (19). The sheets were air dried and scanned using a Berthold LB 2760 Radiochromatographic Scanner. In certain cases, based on the radiochromatographic profile obtained, the sheets were cut, the appropriate regions placed in scintillation vials, 10 ml of LSC cocktail (Yorktown Research, S. Hackensack, NJ) added, and the relative cpm determined.

T1 sequence (H0UT36 entry or part of it): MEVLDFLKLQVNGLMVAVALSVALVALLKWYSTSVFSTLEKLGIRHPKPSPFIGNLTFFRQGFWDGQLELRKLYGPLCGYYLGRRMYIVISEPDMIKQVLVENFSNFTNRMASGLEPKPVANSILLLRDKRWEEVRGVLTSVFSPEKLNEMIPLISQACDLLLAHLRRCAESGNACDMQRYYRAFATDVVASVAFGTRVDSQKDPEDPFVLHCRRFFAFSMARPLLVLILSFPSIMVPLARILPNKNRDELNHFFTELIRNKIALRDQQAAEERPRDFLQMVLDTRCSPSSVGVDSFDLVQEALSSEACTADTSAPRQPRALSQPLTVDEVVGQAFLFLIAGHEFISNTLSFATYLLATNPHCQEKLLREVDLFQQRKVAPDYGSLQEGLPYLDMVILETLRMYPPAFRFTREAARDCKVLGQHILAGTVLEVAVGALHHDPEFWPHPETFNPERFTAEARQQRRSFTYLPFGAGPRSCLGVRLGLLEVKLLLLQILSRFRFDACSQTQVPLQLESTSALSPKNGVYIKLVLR

| Compound | IC50 |
| --- | --- |
| O=[N+]([O-])c1ccc(-n2ccnc2)c([N+](=O)[O-])c1 [1-[2,4-dinitrophenyl]1H--imidazole] | > 100 µM and < 1000 µM |
| CCn1ccnc1 [1-ethyl-1H--imidazole] | > 1000 µM |
| Nc1cncc(C(=O)O)c1 [5-amino-3-pyridinecarboxylic acid] | > 1000 µM |
| O=C1C(CC[S+]([O-])c2ccccc2)C(=O)N(c2ccccc2)N1c1ccccc1 (centres unmarked) [1,2-diphenyl-4-[2-[phenylsulfinyl]ethyl]-3,5-pyrazo-lidinedione, reference compound] | ~1000 µM |

Same assay, conditions: enzyme source G = Guinea Pig Lung Microsomes; read-out: IC50

| Compound | IC50 |
| --- | --- |
| O=[N+]([O-])c1c[nH]cn1 [1H-- 4-nitroimidazole] | > 1000 µM |
| Cn1ccnc1 [1-methyl-1H--imidazole] | > 1000 µM |

The next lines start with the values.

| IC50 | Compound |
| --- | --- |
| > 100 µM and < 1000 µM | COc1ccc2c(c1)c(CC(=O)O)c(C)n2C(=O)c1ccc(Cl)cc1 [1-(4-chlorobenzoyl)-5-methoxy-2-methyl-1H--indole-3-acetic acid, reference compound] |
| > 1000 µM | Cc1ccc2c(-c3ccccc3)nc(=O)n(C(C)C)c2c1 [7-methyl-1-(1-methylethyl)-4-phenyl-2(1H)-quinazolinone, reference compound] |
| > 100 µM and < 1000 µM | COC(=O)C=Cc1c[nH]cn1 [3-(1H--imidazole-4-yl)-2-propenoic acid methyl ester] |
| > 1000 µM | CC(C)Oc1ccc2oc3ccc(C(=O)O)cc3c(=O)c2c1 [7-(1-methylethoxy)-9-oxo-9H-xanthene-2-carboxylic acid] |
| > 100 µM and < 1000 µM | O=C1c2ccccc2S(=O)(=O)c2cc(-c3nnn[nH]3)ccc21 [3-(1H-tetrazol-5-yl)-9H-thioxathen-9-one s.s dioxide, reference compound] |
| ~100 µM | c1ccc(-c2ccncn2)cc1 [4-phenylpyrimidine] |
| > 100 µM and < 1000 µM | O=[N+]([O-])c1ccc(-n2ccnc2)cc1 [1-(4-nitrophenyl)-1H--imidazole] |

Target: T2, thromboxane synthase (Human Platelet Microsomes) (Homo sapiens, UniProt P24557)
T2 construct: Platelets were obtained from 320 ml of whole blood and resuspended in 5.0 ml of Krebs-Hensleit buffer; from tissue; host or cells: human platelets (microsomes, 110,000 g pellet)
T2 sequence (P24557 1-533): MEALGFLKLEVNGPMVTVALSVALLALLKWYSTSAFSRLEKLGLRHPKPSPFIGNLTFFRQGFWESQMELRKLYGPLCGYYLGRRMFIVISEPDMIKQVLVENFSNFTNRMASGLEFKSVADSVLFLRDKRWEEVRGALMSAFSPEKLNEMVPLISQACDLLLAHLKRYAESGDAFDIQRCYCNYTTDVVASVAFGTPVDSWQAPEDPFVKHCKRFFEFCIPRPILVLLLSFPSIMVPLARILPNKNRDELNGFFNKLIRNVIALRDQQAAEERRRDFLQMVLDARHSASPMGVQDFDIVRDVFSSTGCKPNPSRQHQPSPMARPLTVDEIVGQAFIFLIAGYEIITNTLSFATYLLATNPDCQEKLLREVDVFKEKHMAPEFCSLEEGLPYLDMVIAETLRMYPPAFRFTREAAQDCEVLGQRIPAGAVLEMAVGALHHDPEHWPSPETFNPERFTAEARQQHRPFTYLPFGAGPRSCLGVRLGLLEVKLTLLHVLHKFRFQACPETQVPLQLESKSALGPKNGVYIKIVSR
Test: Thromboxane synthase inhibition, human platelet microsomes
Format: biochemical
Details: IC50, enzyme source H = Human Platelet Microsomes
Protocol: In said assay procedure, microsomes from guinea pig lung or human platelets are added to an endoperoxide intermediate in prostaglandin biosynthesis and the inhibitor in phosphate buffer solution followed by incubation, extraction and determination of the extent of thromboxane synthase inhibition by TLC with radiochromatographic profile analysis.
(§6) Determination of Inhibition of Thromboxane Synthase Activity Isolation of Human Platelet Microsomes
Platelets were obtained from 320 ml of whole blood and resuspended in 5.0 ml of Krebs-Hensleit buffer (CA^+2 free). After three consecutive freeze-thawing cycles, homogenization and centrifugation at 12,000 g for 45 min., the 12,000 supernatant was recentrifuged at 110,000 g for 60 min. The resultant pellet was resuspended in phosphate buffer (0.5 ml, 0.1M, pH 7.5) and stored at -70° until use.
as §1, §2, §3, §4, §5

| Compound | IC50 |
| --- | --- |
| c1ccc(Cn2ccnc2)cc1 [1-(phenylmethyl)-1H--imidazole] | 10 to 100 µM |
| Clc1ccccc1C(c1ccccc1)(c1ccccc1)n1ccnc1 [1-[(2-chlorophenyl)diphenylmethyl]-1H--imidazole, reference compound] | 10 to 100 µM |

Same assay, conditions: enzyme source H = Human Platelet Microsomes; read-out: IC50

| Compound | IC50 |
| --- | --- |
| CCCCn1ccnc1 [1-butyl-1H--imidazole] | ~10 µM |
| OC[C@H]1O[C@@H](n2ccnc2)[C@H](O)[C@@H](O)[C@@H]1O [1-(beta-D-glucopyranosyl)-1H--imidazole] | 10 to 100 µM |
| CC(=O)n1ccnc1 [1-acetyl-1H--imidazole] | ~1000 µM |

Now from value to compound:

| IC50 | Compound |
| --- | --- |
| ~10 µM | CCOc1ccc(-n2ccnc2)cc1 [1-(4-ethoxyphenyl)-1H--imidazole] |
| > 100 µM and < 1000 µM | CCOC(=O)C(=O)Cc1ccncn1 [Alpha-oxo-4-pyrimidinepropanoic acid ethyl ester] |
| > 100 µM and < 1000 µM | CC(C)(C(=O)c1cccnc1)c1cccnc1 [2-methyl-1,2-di-3-pyridyl-1-propanone tartrate [1:2], reference compound] |
| ~1 µM | Oc1ccc(-n2ccnc2)cc1 [4-(1H--imidazol-1-yl)phenol, 4-(1H-imidazol-1-yl)phenol] |
| 10 to 100 µM | COc1ccc(-n2ccnc2)cc1 [1-(4-methoxyphenyl)-1H--imidazole] |
| > 1000 µM | CC(C)Oc1ccc2oc3ccc(C(=O)O)cc3c(=O)c2c1 [7-(1-methylethoxy)-9-oxo-9H-xanthene-2-carboxylic acid] |
| > 100 µM and < 1000 µM | N[C@@H]1C(=O)N2C(C(=O)O)=C(CSc3ccncn3)CS[C@H]12 [[6R--(6α,7β)]-2-carboxy-8-oxo-3-[(4-pyrimidinylthio)-methyl]5-thia-1-azabicyclo-[4.2.0]oct-2-en-7-aminum hydroxide inner salt] |
| ~100 µM | O=C(NN=Cc1c(O)ccc2ccccc12)c1cccnc1 [[(2-hydroxy-1-naphthalenyl)methylene]hydrazide 3-pyridinecarboxylic acid] |
| 1 to 10 µM | Oc1cccc(-n2ccnc2)c1 [3-(1H--imidazol-1-yl)phenol] |

Target: TXA2 Synthase
Test: TXA2 synthase IC50 as listed in Table I (enzyme source not stated)
Format: biochemical
Details: not given
Protocol: as §6, §3, §4, §5

| IC50 | Compound |
| --- | --- |
| 1 µM | Oc1ccc(-n2ccnc2)cc1 [4-(1H--imidazol-1-yl)phenol, 4-(1H-imidazol-1-yl)phenol] |

Test system: isolated perfused rat pancreas
Test: Insulin secretion by isolated perfused rat pancreas
Design: key: insulin AUC ratio: 1st glucose pulse / 2nd pulse with compound
Details: 10 μM; 16.7 mM glucose; control 1.0 ± 0.04 (n = 5)
Protocol: Determination of Insulin-Secretory Activity in the Isolated Perfused Rat Pancreas
Pancreata were obtained from young adult female Charles River rats weighing from 200-300 g. The animals were anaesthesized with sodium pentobarbitol (45 mg/kg), injected intraperitoneally, and the pancreas with its intact vasculature was removed and connected to an extracorporeal perfusion apparatus.
The basic perfusion solution contained: 133 mM NaCl, 4.4 mM KCl, 2.5 mM MgSO4, 2.4 mM Ca gluconate, 1.5 mM KH2 PO4, 29.4 mM NaHCO3, 4% dextran and 0.2% bovine serum albumin and glucose as discussed below. The perfusion flow rate was kept constant at 4 ml/min. After a 15-20 min equilibration period, the experimental protocol was begun. The pancreatic effluent was collected in either one or four-minute fractions.
The perfusion was run in the following sequence:
30 min 16.7 mM glucose-internal control
30 min 16.7 mM glucose and test compound
5 min 20 mM arginine-to check pancreas viability
Test compounds were dissolved in 90% ethanol to a concentration of 25 mM and then diluted in the perfusion buffer to the desired concentration. The perfusion effluent was collected in one or four min fractions-the samples were checked immediately, aliquoted for submission to radioimmunoassay and stored at -20° C. until the time of assay. The radioimmunoassay of insulin was carried out by a back-titration method using a pure rat insulin standard.
To assess the inhibitory activity of the test compounds, an inhibition index was calculated. The inhibition index is derived by comparing the insulin secretion response from treated versus nontreated pancreas preparations. For each preparation, a ratio of insulin secretion was calculated from the area under the insulin secretion curve of the first pulse of 16.7 mM glucose divided by the area under the curve of the second pulse of 16.7 mM glucose containing compound.

| Compound | Insulin Secretion Inhibition Index |
| --- | --- |
| Oc1ccc(-n2ccnc2)cc1 [4-(1H--imidazol-1-yl)phenol, 4-(1H-imidazol-1-yl)phenol] | 2 |
